Source: US8039464B2, “Muscarinic antagonists with PARP and SIR modulating activity as agents for inflammatory diseases” (ProteoSys AG, priority 2004, dated 2011)
Several values for one entry are separate records, joined by “and”; a condition that tells them apart may be missing. Identical values can stand only once. Entries after “also recorded” stand apart in the source; their conditions may differ. Like-named read-outs stand apart in the source and are kept apart here.

Tests used:
[1] = Blood-brain-barrier passage: HPLC of plasma and CSF
Text: J. Gastroenterol. 66, 35ff.; Homon et al., 1987, Therapeutic Drug Monitoring 9, 236ff.).

[2] = system: poly-ADP-ribosylated proteins; test: PARP inhibition under cellular conditions (Western blot of poly-ADP-ribosylated proteins); type: cell-based; settings: ischemic insult of neural cells by KCN/glucose deprivation; read-out: IC 50 of decrease of poly-ADP-ribosylated proteins
3T3 fibroblasts = test: LPS challenge, cell survival by Trypan Blue; type: cell-based; settings: LPS 100 ng/ml for 60 min
Method: (§1) Cell pellets were further investigated by Western blot staining with anti Cox-2 and anti iNOS antibodies of 1D polyacrylamide gels.
(§2) Cell survival was assessed by Trypan Blue staining.

[3] = system: undifferentiated V56 embryonic stem cells; test: LPS challenge, cell survival by Trypan Blue; type: cell-based; settings: LPS 100 ng/ml for 60 min
Method: as §1, §2

A 549 cells = test: LPS challenge, cell survival by Trypan Blue; type: cell-based; settings: LPS 100 ng/ml for 60 min
Method: as §1, §2

[4] = system: neurally differentiated V56 embryonic stem cells; test: LPS challenge, cell survival by Trypan Blue; type: cell-based; settings: LPS 100 ng/ml for 60 min
Method: as §1, §2

iNOS and Cox-2 = test: Cox-2 and iNOS expression after LPS challenge (Western blot); type: cell-based; settings: LPS 100 ng/ml for 60 min
Method: as §1, §2

PARP-1 = molecular target: T1, PARP-1 (Homo sapiens, UniProt P09874); test: PARP inhibition assay (R&D Systems, Cat. No. TA4669); type: biochemical
T1 construct: purchased R&D Systems TA4669
Text: A PARP inhibition assay from R&D Systems was used (Cat. No. TA4669) according to instructions of the supplier.
Under cellular conditions PARP-1 poly-ADP-ribosylates a host of nuclear proteins, including topoisomerase 1, 14-3-3 g and PARP-1 itself. Thus under cellular conditions, the self-modification of PARP-1 and dimerization are regulating its activity, moreover there is a tight interplay with PARG (poly-ADP-ribosyl-glycohydroxylase).

[5] = system: D3 embryonic stem (ES) cells, neurons; test: Cell culture model for chemical ischemia and neuroprotection (calcium imaging); type: cell-based, mice; settings: β-methyl-cyclodextrin or filipin
Method: For all experiments, D3 embryonic stem (ES) cells derived from 129/sv mice [Okabe et al., 1996] were cultivated for 12 days, with passages on days 2, 4, 7 and 9 as described previously [Sommer et al., 2004]. Insult conditions: Cells (24-well plates) were pre-incubated with or without 20 nM EPO in fresh medium for 24 hours at 37° C. Cells were rinsed once with low K^+ solution (140 mM NaCl, 4.7 mM KCl, 1.2 mM KH2PO4, 2.5 mM CaCl2, 1.2 mM MgSO4, 11 mM glucose, 15 mM Hepes-NaOH, pH 7.35). Cells (either with or without EPO pre-incubation) were incubated for up to 45 min (37° C.) with either low K^+ solution or with glucose-free low K^+ solution supplemented with 1 mM KCN (chemical ischemia solution [Kume et al., 2002]). Vitality control to asses numbers of surviving neurons was performed by a brief stimulation with a low dose of glutamate (10 μM). Afterwards, cells were washed three times with ice cold phosphate buffered saline (PBS), and then proteins were harvested. Suspended cells were pelleted at 500×G, and lysed into 9M urea 4% CHAPS. The cell lysate was desalted with a NAP-10 column (Amersham Biosciences), preequilibrated with the same buffer, and protein content was determined.
Functional tests by calcium imaging were performed essentially as described [Sommer et al., 2004]. Briefly, cells were loaded with 2 μM of […] in DMEM for 45 min at 37° C. in the dark. Measurements of relative changes in [Ca^2+] were made on an inverted epifluorescence microscope (Olympus IX70 S1F2) with a Polychrom IV Monochromator (Xe-lamp, USHIO). Excitation wavelengths (λ1, λ2) and the emission wavelength were 340, 380 and 510 nm, respectively. Acquisition and analysis of data after appropriate stimulation were performed by using MetaFluor software (Universal Imaging Corporation). Image resolution was 168×129 pixels (binning 8×8, pixel size 6.8×6.8 μm). Only cells identified as neurons by morphological criteria and occasional immunostaining (not shown) and those whose calcium levels returned to the resting state after the first stimulation were taken into account. Controls included nominal zero calcium (negative) and 5 μM ionomycin (positive), 10 μM glutamate (positive) and depolarisation (55 mM K+) (positive). Pharmacological agents were applied by a multi-valve, single-output focal drug application device (ALA Scientific) with the perfusion system DAD-12. […] During each stimulation event 20 image pairs were acquired.

SIR-2 = molecular target: T2, SIR-2 (Mus musculus, UniProt Q923E4); test: SIR2 activity assay (CycLex SIR2 Assay kit); type: biochemical, murine
T2 construct: Using a raw extract from murine embryonic stem cells; host or cells: murine embryonic stem cells (raw extract)
T2 sequence (Q923E4 2-737 limits assumed): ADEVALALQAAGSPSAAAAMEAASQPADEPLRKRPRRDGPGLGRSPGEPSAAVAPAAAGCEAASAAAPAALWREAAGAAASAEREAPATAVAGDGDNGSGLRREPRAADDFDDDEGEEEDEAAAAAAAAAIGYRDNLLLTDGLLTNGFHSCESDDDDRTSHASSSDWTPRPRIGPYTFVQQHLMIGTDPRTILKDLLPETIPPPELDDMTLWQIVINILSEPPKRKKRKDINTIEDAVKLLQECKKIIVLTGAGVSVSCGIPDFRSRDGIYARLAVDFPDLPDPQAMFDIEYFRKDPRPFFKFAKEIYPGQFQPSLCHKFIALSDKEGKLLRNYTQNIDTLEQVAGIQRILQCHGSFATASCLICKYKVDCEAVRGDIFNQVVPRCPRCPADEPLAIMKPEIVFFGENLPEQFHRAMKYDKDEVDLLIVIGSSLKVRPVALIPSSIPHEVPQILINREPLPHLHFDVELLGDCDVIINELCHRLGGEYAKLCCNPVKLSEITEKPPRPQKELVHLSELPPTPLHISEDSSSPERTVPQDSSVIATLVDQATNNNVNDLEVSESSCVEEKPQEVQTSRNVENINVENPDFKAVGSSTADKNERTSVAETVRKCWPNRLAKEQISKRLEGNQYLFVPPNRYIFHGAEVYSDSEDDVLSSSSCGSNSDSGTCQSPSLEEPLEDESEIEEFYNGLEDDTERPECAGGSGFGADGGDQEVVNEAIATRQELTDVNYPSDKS
Text: For measurements of SIR2 activities, the quantitative test kit for NAD-dependent histone deacetylase activity CycLex® SIR2 Assay kit (Cat# CY-1151) was used according to instructions of manufacturer (CycLex Co., Ltd. 1063-103 Ohara, Tera-Sawaoka Ina, Nagano 396-0002 Japan). All substances tested in the SIR assay were cross-checked for their influence on the lysyl-endopeptidase. For this control an already deacetylated substrate peptide was used in order to measure directly lysyl-endopeptidase activity.
For measurements of SIR2 activities, the quantitative test kit for NAD-dependent histone deacetylase activity CycLex® SIR2 Assay kit (Cat# CY-1151) was used according to instructions of manufacturer (CycLex Co., Ltd. 1063-103 Ohara, Tera-Sawaoka Ina, Nagano 396-0002 Japan).

[6] = system: traumatic brain injury (TBI); test: Controlled Cortical Impact Injury (traumatic brain injury model); type: in vivo
Method: The model employed a direct shock to the dura via a burrhole, animals were treated according to the following schemes: Vehicle, LS-75, 8 animals per group starting the study, 2 spare animals; animals were sacrificed 44 h after injury, the endpoints were survival, post injury signs, lesion size by FLB (Fast Luxol Blue) and EMAP (Endothelial, Monocyte, Activating Peptide) staining. The dosing i.p. 100 mg/kg 2 h prior to injury; 40 mg/kg i.p. 2 h after injury; 40 mg/kg i.p. 8 h after injury; 40 mg/kg i.p. 17 h after injury; 40 mg/kg i.p. 25 h after injury; 70 mg/kg i.p. 34 h after injury; Formulation: LS-75 was prepared as a DMSO slurry (not solution) in a mortar and pestle and saline will be added slowly with grinding to reach 4% DMSO final concentration. The suspension is maintained at room temperature and the preparation used for the duration of the study. To vary dose, the volume injected may change. Volume for 100 mg/kg was be 4 mL/kg.

T1 sequence (P09874 whole entry): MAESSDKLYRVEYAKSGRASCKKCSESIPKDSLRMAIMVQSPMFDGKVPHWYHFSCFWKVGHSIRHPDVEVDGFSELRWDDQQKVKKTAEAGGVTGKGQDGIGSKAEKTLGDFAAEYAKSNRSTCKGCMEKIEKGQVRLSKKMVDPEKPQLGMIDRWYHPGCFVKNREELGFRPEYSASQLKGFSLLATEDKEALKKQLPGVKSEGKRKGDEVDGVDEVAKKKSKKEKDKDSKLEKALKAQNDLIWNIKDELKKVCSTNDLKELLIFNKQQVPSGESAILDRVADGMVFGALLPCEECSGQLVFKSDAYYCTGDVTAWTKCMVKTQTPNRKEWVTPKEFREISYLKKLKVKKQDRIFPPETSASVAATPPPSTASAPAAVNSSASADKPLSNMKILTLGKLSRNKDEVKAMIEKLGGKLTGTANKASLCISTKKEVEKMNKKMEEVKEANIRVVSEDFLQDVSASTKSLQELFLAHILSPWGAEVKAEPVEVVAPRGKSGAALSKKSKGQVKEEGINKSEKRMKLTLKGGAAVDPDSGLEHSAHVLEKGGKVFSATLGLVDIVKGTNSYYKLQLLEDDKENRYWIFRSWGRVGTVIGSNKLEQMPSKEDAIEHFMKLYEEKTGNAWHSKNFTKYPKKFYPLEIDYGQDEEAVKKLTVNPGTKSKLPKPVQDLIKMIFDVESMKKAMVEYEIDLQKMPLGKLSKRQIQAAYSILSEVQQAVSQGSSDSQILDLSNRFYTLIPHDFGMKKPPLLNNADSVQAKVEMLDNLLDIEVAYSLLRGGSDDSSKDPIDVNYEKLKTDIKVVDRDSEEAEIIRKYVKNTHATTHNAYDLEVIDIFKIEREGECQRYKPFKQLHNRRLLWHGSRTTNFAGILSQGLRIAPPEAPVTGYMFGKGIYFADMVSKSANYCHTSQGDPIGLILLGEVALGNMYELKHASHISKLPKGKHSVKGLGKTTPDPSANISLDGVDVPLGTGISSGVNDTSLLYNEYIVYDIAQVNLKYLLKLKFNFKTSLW

O=C1Nc2cccnc2Nc2ccccc21 [LS-75, 6H-pyrido[2,3-b][1,4]benzodiazepin-6-one]
passage through the BBB ([1]; LS-75 applied directly): substantial passage
LS-75 levels in CSF ([1]; after Pirenzepine application, after 6 h): substantial increase
Kp ([1]; rat, in vivo, 50 mg/kg): 0.25 to 0.3
LS-75 in CSF after Mevastatin pretreatment ([1]; rats, Mevastatin 0.15 mg/day for 14 days before oral gavage): far less
higher concentrations in plasma after Mevastatin pretreatment ([1]; rats, Mevastatin 0.15 mg/day for 14 days before oral gavage of 50 mg Pirenzepine and LS-75): about 50%
IC50 [2]: ~0.3 µM
protection from LPS challenge (3T3 fibroblasts): protect
protection from LPS challenge [3]: protect
protection from LPS challenge (A 549 cells): protect
protection from LPS challenge [4]: protect
expression of inducible inflammatory markers iNOS and Cox-2 (iNOS and Cox-2): decreased expression
PARP-1 inhibition (in words) (PARP-1): moderately strong PARP-1 inhibitor
IC50 (PARP-1; IC50 PARP-1 inhibition, R&D assay, recombinant monomeric PARP-1): 18 µM and ~20 µM
neuroprotective effect under raft-disrupting conditions [5]: does not occur
IC50 (SIR-2): 1000 to 5000 µM
SIR-2 inhibition (in words) (SIR-2): weak SIR 2 inhibitor; also recorded: weak SIR-2 inhibitors
SIR-2 inhibition (in words) (SIR-2; listed as PBD/LS-75): weak inhibitory effect
reduction of secondary lesions ([6]; 44 h after induction of TBI, i.p. dosing, compared to vehicle controls): approx. 50%
reduction of markers for cell damage (fast luxol blue and EMAP) ([6]; contralateral hippocampus, compared to controls): 40-60%
